Measured values from patent US20100267823A1, “AURONES AS SELECTIVE PDE INHIBITORS AND THEIR USE IN NEUROLOGICAL CONDITIONS AND DISORDERS” (priority 2009, published 2010).

Key:
Assay type in all cases: biochemical
[1] = tested on: PDE1 protein isolated from bovine brain; assay: PDE 1 inhibition assay ([3H]cAMP hydrolysis); conditions: final concentration of the test compound 10 μM
Experimental: (§1) PDE1 protein isolated from bovine brain (MDS Pharma Services: cat. No. 146000) was pre-incubated with the respective test compound dissolved in 1% DMSO aqueous solution for 15 minutes at 25° C. in an incubation buffer (50 mM Tris-HCl, pH 7.5, 5 mM MgCl2, 2 mM CaCl2, 100 U/ml Calmodulin). After pre-incubation phase 1.01 μM [^3H]cAMP+cAMP where added as substrate to the buffer and the mixture was incubated for additional 20 minutes (25° C.).
(§2) At the end of incubation phase [^3H] Adenosine concentrations were quantified. The final concentration of the test compound is 10 μM.

[2] = tested on: PDE4 protein from human leukemic monocyte lymphoma cell line (U937); assay: PDE 4 inhibition assay ([3H]cAMP hydrolysis); conditions: final concentration of the test compound 10 μM
Experimental: as §1, with “PDE4” for “PDE1”, “protein” for “protein isolated”, “human leukemic monocyte lymphoma cell line (U937, for example abcam ab3959)” for “bovine brain”, “152000)” for “146000)”, “C.). At the end of incubation phase [^3H] Adenosine concentrations were quantified.” for “C.).”
as §2

[3] = target: T1, PDE3 protein isolated from human platelets (Homo sapiens, UniProt Q14432); assay: PDE 3 inhibition assay ([3H]cAMP hydrolysis); conditions: final concentration of the test compound 10 μM; read-out: inhibition compared with the control (PDE 3)
T1 construct: PDE3 protein isolated from human platelets; tissue MDS Pharma Services 152000; host or cells: human platelets
T1 sequence (Q14432 whole entry): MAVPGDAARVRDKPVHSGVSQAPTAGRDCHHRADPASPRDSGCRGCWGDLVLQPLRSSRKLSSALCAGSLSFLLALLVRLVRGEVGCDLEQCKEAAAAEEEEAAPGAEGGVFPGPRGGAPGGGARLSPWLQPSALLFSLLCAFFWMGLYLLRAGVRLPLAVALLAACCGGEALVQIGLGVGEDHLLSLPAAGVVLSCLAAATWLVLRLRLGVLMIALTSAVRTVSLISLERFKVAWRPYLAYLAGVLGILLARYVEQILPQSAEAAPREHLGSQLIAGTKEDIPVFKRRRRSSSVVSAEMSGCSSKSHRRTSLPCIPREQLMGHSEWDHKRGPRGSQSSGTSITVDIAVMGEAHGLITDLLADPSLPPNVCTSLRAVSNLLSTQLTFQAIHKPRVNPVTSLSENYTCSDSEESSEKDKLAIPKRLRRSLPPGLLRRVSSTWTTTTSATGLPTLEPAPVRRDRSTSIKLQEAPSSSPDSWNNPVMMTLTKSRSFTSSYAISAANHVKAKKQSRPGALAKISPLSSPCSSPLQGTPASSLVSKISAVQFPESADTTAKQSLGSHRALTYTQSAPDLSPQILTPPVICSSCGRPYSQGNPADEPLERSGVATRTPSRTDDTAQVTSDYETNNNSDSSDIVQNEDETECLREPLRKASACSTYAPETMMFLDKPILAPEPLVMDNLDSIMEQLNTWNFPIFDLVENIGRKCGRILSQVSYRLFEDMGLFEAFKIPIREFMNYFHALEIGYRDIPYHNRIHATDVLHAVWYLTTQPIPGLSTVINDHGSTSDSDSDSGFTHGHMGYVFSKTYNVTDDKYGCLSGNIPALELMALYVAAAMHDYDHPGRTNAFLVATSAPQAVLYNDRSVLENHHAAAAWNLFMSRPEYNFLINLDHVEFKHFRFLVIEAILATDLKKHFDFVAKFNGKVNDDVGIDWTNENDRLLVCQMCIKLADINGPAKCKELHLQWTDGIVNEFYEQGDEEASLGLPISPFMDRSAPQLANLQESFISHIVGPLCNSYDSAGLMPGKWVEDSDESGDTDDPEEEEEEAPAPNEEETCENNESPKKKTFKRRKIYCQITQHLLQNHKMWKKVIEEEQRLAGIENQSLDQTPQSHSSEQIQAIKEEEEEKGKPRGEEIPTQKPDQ
Experimental: PDE3 protein isolated from human platelets (MDS Pharma Services: cat. No. 152000) was pre-incubated with the respective test compound dissolved in 1% DMSO aqueous solution for 15 minutes at 25° C. in an incubation buffer (50 mM Tris-HCl, pH 7.5, […], […]). After pre-incubation phase 1.01 μM [^3H]cAMP+cAMP where added as substrate to the buffer and the mixture was incubated for additional 20 minutes (25° C.). At the end of incubation phase [^3H] Adenosine concentrations were quantified. Stimulating or inhibiting effects equal or larger than 50% in comparison to vehicle (1% DMSO) control were considered as significant effects.
as §2

Row | inhibition at 10 µM [3] [%] | SMILES | inhibition compared with the control (PDE 1) [1] [%] | inhibition compared with the control (PDE 4) [2] [%]
1 | 39 | O=C1/C(=C/c2ccc(O)cc2O)Oc2cc(O)cc(O)c21 [SM 29 (3), 2′,4,4′,6-Tetrahydroxy-aurone] | 52 | 29
2 | 74 | O=C1/C(=C/c2ccc(O)cc2)Oc2cc(O)cc(O)c21 [SM 30(3), 4,4′,6-Trihydroxy-aurone] | 52 | 41
